Results as given in article PMC4508061, “Selectivity Profiling and Biological Activity of Novel β-Carbolines as Potent and Selective DYRK1 Kinase Inhibitors” (PLoS ONE, 2015).

Key:
Test in all cases: ProQinase radiometric kinase panel
Details in all cases: mean of 2 exp.
SNK = SNK (Homo sapiens, UniProt Q9NYY3)
STK33 = STK33 (Homo sapiens, UniProt Q9BYT3)
Aurora-C = Aurora-C (Homo sapiens, UniProt Q9UQB9)
MATK = MATK (Homo sapiens, UniProt P42679)
MINK1 = MINK1 (Homo sapiens, UniProt Q8N4C8)
CSK = CSK (Homo sapiens, UniProt P41240)
TXK = TXK (Homo sapiens, UniProt P42681)
p38-beta = p38-beta (Homo sapiens, UniProt Q15759)
INS-R = INS-R (Homo sapiens, UniProt P06213)
SRC = SRC (Homo sapiens, UniProt P12931)
MKK6 (S207D/T211D) = MKK6 (S207D/T211D) (Homo sapiens, UniProt P52564, S207D/T211D)
MAP3K7 = MAP3K7 (Homo sapiens, UniProt O43318)
MAP3K7, sequence (O43318 1-303 limits assumed): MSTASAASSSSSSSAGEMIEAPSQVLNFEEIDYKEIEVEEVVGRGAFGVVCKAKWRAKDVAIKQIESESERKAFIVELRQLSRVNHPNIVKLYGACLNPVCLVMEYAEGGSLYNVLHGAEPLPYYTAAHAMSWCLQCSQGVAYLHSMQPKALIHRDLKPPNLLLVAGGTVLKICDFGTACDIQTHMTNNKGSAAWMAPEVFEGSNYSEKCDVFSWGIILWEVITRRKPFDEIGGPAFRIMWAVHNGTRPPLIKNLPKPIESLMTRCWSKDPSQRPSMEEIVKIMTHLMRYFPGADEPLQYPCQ

PKC-theta = PKC-theta (Homo sapiens, UniProt Q04759)
JNK3 = JNK3 (Homo sapiens, UniProt P53779)
Protocol: Gini coefficients were calculated and the Lorenz curve (Fig 3B) was plotted by applying the Microsoft Excel spreadsheet provided by Graczyk [44].
radiometric protein kinase assays.

MAPKAPK3 = MAPKAPK3 (Homo sapiens, UniProt Q16644)
MAPKAPK3, sequence (Q16644 whole entry): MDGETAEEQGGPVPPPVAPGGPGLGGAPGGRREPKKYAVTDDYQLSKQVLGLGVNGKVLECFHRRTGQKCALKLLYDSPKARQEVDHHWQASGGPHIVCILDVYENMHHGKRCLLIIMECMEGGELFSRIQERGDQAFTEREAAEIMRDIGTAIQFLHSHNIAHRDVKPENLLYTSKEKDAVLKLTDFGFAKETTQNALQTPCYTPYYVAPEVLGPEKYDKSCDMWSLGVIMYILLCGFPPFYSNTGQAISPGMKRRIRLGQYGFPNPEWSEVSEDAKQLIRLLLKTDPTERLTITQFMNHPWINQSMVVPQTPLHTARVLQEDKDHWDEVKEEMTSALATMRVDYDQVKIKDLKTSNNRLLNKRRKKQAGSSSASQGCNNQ

GSK3-alpha = GSK3-alpha (Homo sapiens, UniProt P49840)
VRK1 = VRK1 (Homo sapiens, UniProt Q99986)
VRK1, sequence (Q99986 whole entry): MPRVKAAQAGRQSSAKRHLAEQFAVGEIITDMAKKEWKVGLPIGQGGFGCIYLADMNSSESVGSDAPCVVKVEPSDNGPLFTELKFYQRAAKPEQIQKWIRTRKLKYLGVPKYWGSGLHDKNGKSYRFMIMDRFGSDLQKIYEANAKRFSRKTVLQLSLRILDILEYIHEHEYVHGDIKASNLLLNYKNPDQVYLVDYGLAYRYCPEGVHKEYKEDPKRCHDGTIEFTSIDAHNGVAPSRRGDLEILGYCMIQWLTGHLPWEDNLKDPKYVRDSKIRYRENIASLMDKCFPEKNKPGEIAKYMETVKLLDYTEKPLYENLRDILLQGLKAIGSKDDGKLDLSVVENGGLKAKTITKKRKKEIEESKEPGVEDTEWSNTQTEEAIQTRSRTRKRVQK

NEK9 = NEK9 (Homo sapiens, UniProt Q8TD19)
CDK9/CycK = CDK9/CycK (Homo sapiens, UniProt P50750)
ACV-RL1 = ACV-RL1 (Homo sapiens, UniProt P37023)
MAP4K4 = MAP4K4 (Homo sapiens, UniProt O95819)
MAP4K4, sequence (O95819 whole entry): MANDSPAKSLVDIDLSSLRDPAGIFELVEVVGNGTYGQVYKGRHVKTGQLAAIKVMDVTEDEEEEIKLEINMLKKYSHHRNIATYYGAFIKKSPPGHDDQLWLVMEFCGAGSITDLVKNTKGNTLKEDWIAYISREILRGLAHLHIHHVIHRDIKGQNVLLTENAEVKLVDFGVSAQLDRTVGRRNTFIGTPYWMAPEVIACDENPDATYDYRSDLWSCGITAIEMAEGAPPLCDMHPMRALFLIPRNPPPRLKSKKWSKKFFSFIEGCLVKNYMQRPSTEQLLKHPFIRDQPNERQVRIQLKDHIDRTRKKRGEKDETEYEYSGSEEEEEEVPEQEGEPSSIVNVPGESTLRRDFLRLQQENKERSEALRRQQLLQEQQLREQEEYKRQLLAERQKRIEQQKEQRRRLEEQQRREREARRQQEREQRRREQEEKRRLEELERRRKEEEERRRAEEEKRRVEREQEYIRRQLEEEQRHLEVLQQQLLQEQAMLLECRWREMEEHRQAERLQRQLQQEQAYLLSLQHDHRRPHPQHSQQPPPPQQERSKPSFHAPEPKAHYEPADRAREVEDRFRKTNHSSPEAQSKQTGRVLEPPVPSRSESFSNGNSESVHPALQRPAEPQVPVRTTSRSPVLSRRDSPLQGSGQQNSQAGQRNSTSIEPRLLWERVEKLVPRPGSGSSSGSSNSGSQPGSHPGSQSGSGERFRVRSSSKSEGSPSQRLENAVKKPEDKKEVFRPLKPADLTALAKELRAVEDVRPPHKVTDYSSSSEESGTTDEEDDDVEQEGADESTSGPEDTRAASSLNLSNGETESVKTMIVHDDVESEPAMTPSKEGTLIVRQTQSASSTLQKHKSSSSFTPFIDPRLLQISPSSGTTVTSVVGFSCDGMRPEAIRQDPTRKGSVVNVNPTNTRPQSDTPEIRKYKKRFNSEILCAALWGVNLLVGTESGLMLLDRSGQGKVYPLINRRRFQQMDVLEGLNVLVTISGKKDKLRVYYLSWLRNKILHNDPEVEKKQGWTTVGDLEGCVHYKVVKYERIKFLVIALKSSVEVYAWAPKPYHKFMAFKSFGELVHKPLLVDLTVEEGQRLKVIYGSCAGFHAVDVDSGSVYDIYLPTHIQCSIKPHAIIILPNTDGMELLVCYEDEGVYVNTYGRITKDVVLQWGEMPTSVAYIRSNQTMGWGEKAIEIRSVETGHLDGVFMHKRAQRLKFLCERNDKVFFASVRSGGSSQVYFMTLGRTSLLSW

PKC-gamma = PKC-gamma (Homo sapiens, UniProt P05129)
FER = FER (Homo sapiens, UniProt P16591)
FER, sequence (P16591 whole entry): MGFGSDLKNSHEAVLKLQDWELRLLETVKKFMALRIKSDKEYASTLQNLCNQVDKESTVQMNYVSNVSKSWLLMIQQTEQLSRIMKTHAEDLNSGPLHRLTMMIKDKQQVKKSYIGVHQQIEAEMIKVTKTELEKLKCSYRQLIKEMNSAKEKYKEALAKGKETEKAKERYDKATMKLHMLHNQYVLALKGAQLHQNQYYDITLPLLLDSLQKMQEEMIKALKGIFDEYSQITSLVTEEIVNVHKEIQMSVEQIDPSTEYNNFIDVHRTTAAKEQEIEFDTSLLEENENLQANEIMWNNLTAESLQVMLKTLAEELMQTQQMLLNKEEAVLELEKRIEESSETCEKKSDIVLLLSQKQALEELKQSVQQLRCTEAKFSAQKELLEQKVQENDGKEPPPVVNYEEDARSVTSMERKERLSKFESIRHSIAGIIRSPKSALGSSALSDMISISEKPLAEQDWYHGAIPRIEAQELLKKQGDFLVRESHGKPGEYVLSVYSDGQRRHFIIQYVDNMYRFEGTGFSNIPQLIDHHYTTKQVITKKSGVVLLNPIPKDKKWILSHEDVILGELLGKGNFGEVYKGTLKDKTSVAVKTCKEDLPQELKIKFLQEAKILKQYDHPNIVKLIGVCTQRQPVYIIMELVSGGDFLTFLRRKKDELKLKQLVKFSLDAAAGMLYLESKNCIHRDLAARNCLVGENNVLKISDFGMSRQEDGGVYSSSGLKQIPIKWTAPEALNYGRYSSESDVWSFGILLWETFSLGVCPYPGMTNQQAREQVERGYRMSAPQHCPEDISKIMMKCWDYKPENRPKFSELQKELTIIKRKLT

CDK2/CycE1 = CDK2/CycE1 (Homo sapiens, UniProt P24941)
BMX = BMX (Homo sapiens, UniProt P51813)
AKT1 = AKT1 (Homo sapiens, UniProt P31749)
BMPR1A = BMPR1A (Homo sapiens, UniProt P36894)
ACV-R2B = ACV-R2B (Homo sapiens, UniProt Q13705)
MELK = MELK (Homo sapiens, UniProt Q14680)
ACV-R2A = ACV-R2A (Homo sapiens, UniProt P27037)
S6K-beta = S6K-beta (Homo sapiens, UniProt Q9UBS0)
AKT2 = AKT2 (Homo sapiens, UniProt P31751)
GRK4 = GRK4 (Homo sapiens, UniProt P32298)
GRK2 = GRK2 (Homo sapiens, UniProt P25098)
GRK2, sequence (P25098 whole entry): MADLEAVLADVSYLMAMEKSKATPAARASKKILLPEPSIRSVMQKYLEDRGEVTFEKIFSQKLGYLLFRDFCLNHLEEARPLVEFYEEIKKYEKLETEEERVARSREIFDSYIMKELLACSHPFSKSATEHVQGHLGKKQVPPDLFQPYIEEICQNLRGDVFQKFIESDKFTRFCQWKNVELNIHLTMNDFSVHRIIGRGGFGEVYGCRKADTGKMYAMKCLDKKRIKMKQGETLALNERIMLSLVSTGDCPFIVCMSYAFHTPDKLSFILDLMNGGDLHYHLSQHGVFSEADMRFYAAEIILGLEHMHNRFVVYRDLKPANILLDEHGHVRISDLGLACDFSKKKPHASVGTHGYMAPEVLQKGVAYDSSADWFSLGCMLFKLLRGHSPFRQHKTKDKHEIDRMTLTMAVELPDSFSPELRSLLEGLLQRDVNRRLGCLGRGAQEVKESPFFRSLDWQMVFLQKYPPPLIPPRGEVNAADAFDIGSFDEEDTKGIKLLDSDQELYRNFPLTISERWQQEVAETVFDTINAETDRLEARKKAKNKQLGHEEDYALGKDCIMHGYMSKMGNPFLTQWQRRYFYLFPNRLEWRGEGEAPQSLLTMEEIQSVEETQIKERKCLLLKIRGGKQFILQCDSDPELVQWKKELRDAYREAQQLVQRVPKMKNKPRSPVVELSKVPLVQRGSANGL

CDK3/CycE1 = CDK3/CycE1 (Homo sapiens, UniProt Q00526)
SLK = SLK (Homo sapiens, UniProt Q9H2G2)
NEK1 = NEK1 (Homo sapiens, UniProt Q96PY6)
p38-delta = p38-delta (Homo sapiens, UniProt O15264)
CK1-gamma2 = CK1-gamma2 (Homo sapiens, UniProt P78368)
CK1-gamma2, sequence (P78368 whole entry): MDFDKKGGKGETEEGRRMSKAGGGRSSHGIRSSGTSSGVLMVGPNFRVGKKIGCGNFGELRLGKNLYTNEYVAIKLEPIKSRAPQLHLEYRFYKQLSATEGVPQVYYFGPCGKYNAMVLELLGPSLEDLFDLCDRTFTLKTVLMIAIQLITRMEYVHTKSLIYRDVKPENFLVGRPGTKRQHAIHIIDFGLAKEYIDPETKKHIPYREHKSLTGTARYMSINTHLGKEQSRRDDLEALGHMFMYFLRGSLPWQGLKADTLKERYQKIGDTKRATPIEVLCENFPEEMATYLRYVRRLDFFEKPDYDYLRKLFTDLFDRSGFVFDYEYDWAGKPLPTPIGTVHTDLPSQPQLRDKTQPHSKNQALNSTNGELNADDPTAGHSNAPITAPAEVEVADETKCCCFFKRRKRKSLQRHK

## COc1ccc2c3ccnc(Cl)c3n(CC#N)c2c1 [AnnH75]
SNK
  residual activity at 1 µM, Mean: 92 % of control
STK33
  residual activity at 1 µM, Mean: 87 % of control
Aurora-C
  residual activity at 1 µM, Mean: 97 % of control
MATK
  residual activity at 1 µM, Mean: 102 % of control
MINK1
  residual activity at 1 µM, Mean: 92 % of control
CSK
  residual activity at 1 µM, Mean: 94 % of control
TXK
  residual activity at 1 µM, Mean: 94 % of control
p38-beta
  residual activity at 1 µM, Mean: 105 % of control
INS-R
  residual activity at 1 µM, Mean: 92 % of control
SRC
  residual activity at 1 µM, Mean: 95 % of control
MKK6 (S207D/T211D)
  residual activity at 1 µM, Mean: 100 % of control
MAP3K7
  residual activity at 1 µM, Mean: 91 % of control
PKC-theta
  residual activity at 1 µM, Mean: 113 % of control
JNK3
  residual activity at 1 µM, Mean: 82 % of control
MAPKAPK3
  residual activity at 1 µM, Mean: 94 % of control
GSK3-alpha
  residual activity at 1 µM, Mean: 81 % of control
VRK1
  residual activity at 1 µM, Mean: 89 % of control
NEK9
  residual activity at 1 µM, Mean: 95 % of control
CDK9/CycK
  residual activity at 1 µM, Mean: 52 % of control
ACV-RL1
  residual activity at 1 µM, Mean: 91 % of control
MAP4K4
  residual activity at 1 µM, Mean: 85 % of control
PKC-gamma
  residual activity at 1 µM, Mean: 108 % of control
FER
  residual activity at 1 µM, Mean: 93 % of control
CDK2/CycE1
  residual activity at 1 µM, Mean: 97 % of control
BMX
  residual activity at 1 µM, Mean: 79 % of control
AKT1
  residual activity at 1 µM, Mean: 102 % of control
BMPR1A
  residual activity at 1 µM, Mean: 89 % of control
ACV-R2B
  residual activity at 1 µM, Mean: 97 % of control
MELK
  residual activity at 1 µM, Mean: 87 % of control
ACV-R2A
  residual activity at 1 µM, Mean: 97 % of control
S6K-beta
  residual activity at 1 µM, Mean: 102 % of control
AKT2
  residual activity at 1 µM, Mean: 106 % of control
GRK4
  residual activity at 1 µM, Mean: 49 % of control
GRK2
  residual activity at 1 µM, Mean: 92 % of control
CDK3/CycE1
  residual activity at 1 µM, Mean: 94 % of control
SLK
  residual activity at 1 µM, Mean: 99 % of control
NEK1
  residual activity at 1 µM, Mean: 101 % of control
p38-delta
  residual activity at 1 µM, Mean: 89 % of control
CK1-gamma2
  residual activity at 1 µM, Mean: 82 % of control
